# Assay results published in US8822503B2, “2-pyridone compounds” (Taisho Pharmaceutical Co., Ltd, priority 2009, dated 2014).
# pEC50: −log10 of the molar value.
# Target: T1, human liver GK (Homo sapiens, UniProt P35557)
# T1 construct: GST (glutathione S-transferase) (N); made in house; host or cells: E. coli
# T1 sequence (P35557 1-466 isoform P35557-2): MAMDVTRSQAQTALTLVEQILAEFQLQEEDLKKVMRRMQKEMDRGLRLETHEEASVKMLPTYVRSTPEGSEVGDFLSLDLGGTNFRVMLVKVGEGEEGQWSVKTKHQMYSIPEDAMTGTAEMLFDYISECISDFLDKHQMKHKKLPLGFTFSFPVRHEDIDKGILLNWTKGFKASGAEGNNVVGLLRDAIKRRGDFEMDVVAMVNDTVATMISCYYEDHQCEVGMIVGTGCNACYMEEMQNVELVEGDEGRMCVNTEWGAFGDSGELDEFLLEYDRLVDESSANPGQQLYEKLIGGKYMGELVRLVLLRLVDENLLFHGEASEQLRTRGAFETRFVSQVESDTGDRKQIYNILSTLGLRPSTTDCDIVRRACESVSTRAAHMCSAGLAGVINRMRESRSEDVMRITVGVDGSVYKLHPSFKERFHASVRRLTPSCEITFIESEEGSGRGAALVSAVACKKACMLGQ
# Test: GK activation test
# Assay type: biochemical
# Conditions: test compound concentration needed to activate 50% of maximum activation ability; 4 mM 14C-labeled glucose, 2 mM ATP, room temperature, 20 minutes
# Summary of the method: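 GST-tagged human liver GK from E. coli (0.24 μg/well) with 4 mM 14C-glucose, 2 mM ATP in Hepes-KOH pH 7.1, KCl, MgCl2, DTT, 1% DMSO, 20 min room temperature. Labeled glucose 6-phosphate captured on anion resin, eluted and counted. EC50 = concentration giving half of maximal activation.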
row,Compound,pEC50
1,"CCOc1ccc(C(C[C@H]2CCC(=O)N2)c2ccc(Cl)c(=O)[nH]2)cc1Cl (stereo partly drawn) [Example 4-3, 3-Chloro-6-{1-(3-chloro-4-ethoxyphenyl)-2-[(2R)-5-oxopyrrolidin-2-yl]ethyl}pyridin-2(1H)-one]",5.52 to 6.30
2,"Cc1ccc(/C(=C\[C@H]2CCC(=O)N2)c2ccc(C3CC3)c(=O)[nH]2)cc1 [Example 4-4, 3-Cyclopropyl-6-{(E)-1-(4-methylphenyl)-2-[(2R)-5-oxopyrrolidin-2-yl]ethenyl}pyridin-2(1H)-one]",6.30 to 8.00
3,"CCc1ccc(/C(=C\[C@H]2CCC(=O)N2)c2ccc(C3CC3)c(=O)[nH]2)cc1 [Example 4-5, 3-Cyclopropyl-6-{(E)-1-(4-ethylphenyl)-2-[(2R)-5-oxopyrrolidin-2-yl]ethenyl}pyridin-2(1H)-one]",6.30 to 8.00
4,"CCOc1ccc(/C(=C\[C@H]2CCC(=O)N2)c2ccc(C3CC3)c(=O)[nH]2)cc1 [Example 4-6, 3-Cyclopropyl-6-{(E)-1-(4-ethoxyphenyl)-2-[(2R)-5-oxopyrrolidin-2-yl]ethenyl}pyridin-2(1H)-one]",6.30 to 8.00
5,"CCOc1cccc(/C(=C\[C@H]2CCC(=O)N2)c2ccc(C3CC3)c(=O)[nH]2)c1 [Example 4-7, 3-Cyclopropyl-6-{(E)-1-(3-ethoxyphenyl)-2-[(2R)-5-oxopyrrolidin-2-yl]ethenyl}pyridin-2(1H)-one]",5.52 to 6.30
6,"O=C1CC[C@H](/C=C(\c2cccc(OCCCO)c2)c2ccc(C3CC3)c(=O)[nH]2)N1 [Example 4-8, 3-Cyclopropyl-6-{(E)-1-[3-(3-hydroxypropoxy)phenyl]-2-[(2R)-5-oxopyrrolidin-2-yl]ethenyl}pyridin-2(1H)-one]",5.52 to 6.30
7,"O=C1CC[C@H](/C=C(\c2cccc(OCCCCO)c2)c2ccc(C3CC3)c(=O)[nH]2)N1 [Example 4-9, 3-Cyclopropyl-6-{(E)-1-[3-(4-hydroxybutoxy)phenyl]-2-[(2R)-5-oxopyrrolidin-2-yl]ethenyl}pyridin-2(1H)-one]",5.52 to 6.30
8,"CCOc1ccc(/C(=C\[C@H]2CCC(=O)N2)c2ccc(C3CC3)c(=O)[nH]2)cc1Cl [Example 4-10, 6-{(E)-1-(3-Chloro-4-ethoxyphenyl)-2-[(2R)-5-oxopyrrolidin-2-yl]ethenyl}-3-cyclopropylpyridin-2(1H)-one]",6.30 to 8.00
9,"O=C1CC[C@H](/C=C(\c2ccc(OCCCCO)c(Cl)c2)c2ccc(C3CC3)c(=O)[nH]2)N1 [Example 4-11, 6-{(E)-1-[3-Chloro-4-(4-hydroxybutoxy)phenyl]-2-[(2R)-5-oxopyrrolidin-2-yl]ethenyl}-3-cyclopropylpyridin-2(1H)-one]",6.30 to 8.00
10,"Cc1cc(/C(=C\[C@H]2CCC(=O)N2)c2ccc(C3CC3)c(=O)[nH]2)ccc1SC1CC1 [Example 4-12, 3-Cyclopropyl-6-{(E)-1-[4-(cyclopropylsulfanyl)-3-methylphenyl]-2-[(2R)-5-oxopyrrolidin-2-yl]ethenyl}pyridin-2(1H)-one]",6.30 to 8.00
11,"O=C1CC[C@H](/C=C(\c2ccc(SC3CC3)c(Cl)c2)c2ccc(Cl)c(=O)[nH]2)N1 [Example 4-13, 3-Chloro-6-{(E)-1-[3-chloro-4-(cyclopropylsulfanyl)phenyl]-2-[(2R)-5-oxopyrrolidin-2-yl]ethenyl}pyridin-2(1H)-one]",6.30 to 8.00
12,"CCc1ccc(/C(=C\[C@H]2CCC(=O)N2)c2ccc(Cl)c(=O)[nH]2)cc1 [Example 4-14, 3-Chloro-6-{(E)-1-(4-ethylphenyl)-2-[(2R)-5-oxopyrrolidin-2-yl]ethenyl}pyridin-2(1H)-one]",5.52 to 6.30
13,"CC(C)c1ccc(/C(=C\[C@H]2CCC(=O)N2)c2ccc(Cl)c(=O)[nH]2)cc1 [Example 4-15, 3-Chloro-6-{(E)-2-[(2R)-5-oxopyrrolidin-2-yl]-1-[4-(propan-2-yl)phenyl]ethenyl}pyridin-2(1H)-one]",6.30 to 8.00
14,"CCCc1ccc(/C(=C\[C@H]2CCC(=O)N2)c2ccc(Cl)c(=O)[nH]2)cc1 [Example 4-16, 3-Chloro-6-[(E)-2-[(2R)-5-oxopyrrolidin-2-yl]-1-(4-propylphenyl)ethenyl]pyridin-2(1H)-one]",5.52 to 6.30
15,"CCCCc1ccc(/C(=C\[C@H]2CCC(=O)N2)c2ccc(Cl)c(=O)[nH]2)cc1 [Example 4-17, 6-{(E)-1-(4-Butylphenyl)-2-[(2R)-5-oxopyrrolidin-2-yl]ethenyl}-3-chloropyridin-2(1H)-one]",6.30 to 8.00
16,"CC(C)(C)c1ccc(/C(=C\[C@H]2CCC(=O)N2)c2ccc(Cl)c(=O)[nH]2)cc1 [Example 4-18, 6-{(E)-1-(4-tert-Butylphenyl)-2-[(2R)-5-oxopyrrolidin-2-yl]ethenyl}-3-chloropyridin-2(1H)-one]",6.30 to 8.00
17,"O=C1CC[C@H](/C=C(\c2ccc(C(F)(F)F)cc2)c2ccc(Cl)c(=O)[nH]2)N1 [Example 4-19, 3-Chloro-6-{(E)-2-[(2R)-5-oxopyrrolidin-2-yl]-1-[4-(trifluoromethyl)phenyl]ethenyl}pyridin-2(1H)-one]",5.52 to 6.30
18,"CC(C)CCOc1ccc(/C(=C\[C@H]2CCC(=O)N2)c2ccc(Cl)c(=O)[nH]2)cc1Cl [Example 4-20, 3-Chloro-6-{(E)-1-[3-chloro-4-(3-methylbutoxy)phenyl]-2-[(2R)-5-oxopyrrolidin-2-yl]ethenyl}pyridin-2(1H)-one]",6.30 to 8.00
19,"CC(C)CCCOc1ccc(/C(=C\[C@H]2CCC(=O)N2)c2ccc(Cl)c(=O)[nH]2)cc1Cl [Example 4-21, 3-Chloro-6-{(E)-1-{3-chloro-4-[(4-methylpentyl)oxy]phenyl}-2-[(2R)-5-oxopyrrolidin-2-yl]ethenyl}pyridin-2(1H)-one]",6.30 to 8.00
20,"CC(C)COc1ccc(/C(=C\[C@H]2CCC(=O)N2)c2ccc(Cl)c(=O)[nH]2)cc1Cl [Example 4-22, 3-Chloro-6-{(E)-1-[3-chloro-4-(2-methylpropoxy)phenyl]-2-[(2R)-5-oxopyrrolidin-2-yl]ethenyl}pyridin-2(1H)-one]",6.30 to 8.00
21,"Cc1ccc(/C(=C\[C@H]2CCC(=O)N2)c2ccc(Cl)c(=O)[nH]2)cc1C [Example 4-23, 3-Chloro-6-{(E)-1-(3,4-dimethylphenyl)-2-[(2R)-5-oxopyrrolidin-2-yl]ethenyl}pyridin-2(1H)-one]",5.52 to 6.30
22,"Cc1ccc(/C(=C\[C@H]2CCC(=O)N2)c2ccc(Cl)c(=O)[nH]2)cc1Cl [Example 4-24, 3-Chloro-6-{(E)-1-(3-chloro-4-methylphenyl)-2-[(2R)-5-oxopyrrolidin-2-yl]ethenyl}pyridin-2(1H)-one]",5.52 to 6.30
23,"Cc1ccc(/C(=C\[C@H]2CCC(=O)N2)c2ccc(Cl)c(=O)[nH]2)cc1C(F)(F)F [Example 4-25, 3-Chloro-6-{(E)-1-[4-methyl-3-(trifluoromethyl)phenyl]-2-[(2R)-5-oxopyrrolidin-2-yl]ethenyl}pyridin-2(1H)-one]",5.52 to 6.30
24,"O=C1CC[C@H](/C=C(\c2ccc(CCCCO)cc2)c2ccc(Cl)c(=O)[nH]2)N1 [Example 4-26, 3-Chloro-6-{(E)-1-[4-(4-hydroxybutyl)phenyl]-2-[(2R)-5-oxopyrrolidin-2-yl]ethenyl}pyridin-2(1H)-one]",5.52 to 6.30
25,"CCSc1ccc(/C(=C\[C@H]2CCC(=O)N2)c2ccc(Cl)c(=O)[nH]2)cc1Cl [Example 4-27, 3-Chloro-6-{(E)-1-[3-chloro-4-(ethylsulfanyl)phenyl]-2-[(2R)-5-oxopyrrolidin-2-yl]ethenyl}pyridin-2(1H)-one]",6.30 to 8.00
